In patent US7256178B2, “Physiologically active substances” (priority 2002, dated 2007):

What was measured:
[1] = Stability in an aqueous solution (HPLC); assay type: physicochemical; settings: for Remaining percentage (%): pH 7 Britton-Robinson buffer solution, 25° C., 24 hours
Procedure: The compound of the formula (I) was dissolved in DMSO at a concentration of 10 to 20 mM, and the solution was diluted with a pH 7 Britton-Robinson buffer solution to about 500-fold. This solution was used as a sample solution, and was incubated at 25° C. for 24 hours.
The sample solution before and after the incubation was analyzed using high-performance liquid chromatography to obtain a chromatogram. The percentage of the compound remaining in the sample solution after the incubation was determined from the peak area of the chromatogram.

[2] = system: P388 mouse leukemia cells; settings: cited from earlier work
[3] = system: P388 mouse leukemia cells; settings: RPM-1640 culture medium; cited from earlier work
[4] = system: L-1210 mouse leukemia cells; settings: RPM-1640 culture medium; cited from earlier work
[5] = system: HL-60 human leukemia cells; settings: RPM-1640 culture medium; cited from earlier work

For `CCC(OC)C(C)C1OC1C(O)C(C)/C=C/C=C(\C)C1OC(=O)CC(O)CCC(C)(O)C(OC(C)=O)/C=C/C1C` (stereo not shown) [FD-895], the “Stability in an aqueous solution (in words)” value [1] was “instable in an aqueous solution”, the “Remaining percentage (%)” value [1] was 83.0% and the “Remaining percentage (%)” value ([1]; listed as FD895) was 83%. For the same compound, the “Antitumor activity in vivo” value [2] was “did not show antitumor activity”, the “Cytotoxic activity in vitro” value [3] was “has cytotoxic activity” and the “Cytotoxic activity in vitro” value [4] was “has cytotoxic activity”. The “Cytotoxic activity in vitro” value [5] was “has cytotoxic activity”.
